Data taken from article PMC12858405, “Ideal efficacy photoswitching for chromocontrol of TRPC4/5 channel functions in live tissues” (Nature Chemical Biology, 2026).

Tests used:
TRPC4β-I575V-SYFP2 = target: T1, TRPC4β-I575V-SYFP2 (Homo sapiens, UniProt Q9UBN4, I575V); experiment: Fura-2 [Ca2+]i recordings, HEK 293 transiently expressing TRPC4β-I575V-SYFP2; assay type: cell-based; conditions: AzHC 10-1000 nM, AM237 100 nM
T1 construct: expressed in transfected cells; host or cells: HEK 293 (ATCC CRL 1573), transiently transfected (jetPRIME)
From the text: (§1) Müller, Niemeyer, et al., Schaefer & Thorn-Seshold 2025: Ideal Efficacy Photoswitching of TRPC4/5 in Tissue […]
(§2) 1.4.3 Note on TRPC4 / TRPC5 Sequence Alignment
(§3) The key contact residues of interest in the ligand binding site are highly conserved between TRPC4 and TRPC5. The relevant sequences in the site are: […]
(§4) 1.4.4 Differences and selectivity between TRPC5 and TRPC4?
(§5) AM237 activates TRPC5 but inhibits EA mediated activation of TRPC4; Pico145 inhibits both TRPC4 and TRPC5. Thus, somewhat naively, it could be argued that it is the para substituent here which affects both the efficacy mode and the selectivity for TRPC4 and/or TRPC5.
(§6) Intriguingly, Z-AzPico activates TRPC4 and TRPC5 with low nanomolar potency whereas Z-AzHC only activates TRPC5 but not TRPC4. Therefore, the meta substituent is now responsible for the selectivity in this case. The cryo-EM structures of Pico145 and HC-070 in complex with TRPC5 indicated the same binding site but the southern phenyl ring bearing the OCF3/Cl group is flipped and pointing in opposite directions.
(§7) Z isomers, i.e. Z-buried vs. E-projected. Additionally, both E-AzPico and E-AzHC inhibit EA […]
(§8) Intracellular calcium ([Ca2+]i) was measured using the ratiometric Ca2+ dye Fura-2. […]

TRPC5-V579I-SYFP2 = target: T2, TRPC5-V579I-SYFP2 (Homo sapiens, UniProt Q9UL62, V579I); experiment: Fura-2 [Ca2+]i recordings, HEK 293 transiently expressing TRPC5-V579I-SYFP2; assay type: cell-based; conditions: 10-1000 nM; compound plate illuminated at 380 nm; EA 100 nM as maximum
T2 construct: expressed in transfected cells; host or cells: HEK 293 (ATCC CRL 1573), transiently transfected (jetPRIME)
T2 sequence (Q9UL62 1-973 V579I): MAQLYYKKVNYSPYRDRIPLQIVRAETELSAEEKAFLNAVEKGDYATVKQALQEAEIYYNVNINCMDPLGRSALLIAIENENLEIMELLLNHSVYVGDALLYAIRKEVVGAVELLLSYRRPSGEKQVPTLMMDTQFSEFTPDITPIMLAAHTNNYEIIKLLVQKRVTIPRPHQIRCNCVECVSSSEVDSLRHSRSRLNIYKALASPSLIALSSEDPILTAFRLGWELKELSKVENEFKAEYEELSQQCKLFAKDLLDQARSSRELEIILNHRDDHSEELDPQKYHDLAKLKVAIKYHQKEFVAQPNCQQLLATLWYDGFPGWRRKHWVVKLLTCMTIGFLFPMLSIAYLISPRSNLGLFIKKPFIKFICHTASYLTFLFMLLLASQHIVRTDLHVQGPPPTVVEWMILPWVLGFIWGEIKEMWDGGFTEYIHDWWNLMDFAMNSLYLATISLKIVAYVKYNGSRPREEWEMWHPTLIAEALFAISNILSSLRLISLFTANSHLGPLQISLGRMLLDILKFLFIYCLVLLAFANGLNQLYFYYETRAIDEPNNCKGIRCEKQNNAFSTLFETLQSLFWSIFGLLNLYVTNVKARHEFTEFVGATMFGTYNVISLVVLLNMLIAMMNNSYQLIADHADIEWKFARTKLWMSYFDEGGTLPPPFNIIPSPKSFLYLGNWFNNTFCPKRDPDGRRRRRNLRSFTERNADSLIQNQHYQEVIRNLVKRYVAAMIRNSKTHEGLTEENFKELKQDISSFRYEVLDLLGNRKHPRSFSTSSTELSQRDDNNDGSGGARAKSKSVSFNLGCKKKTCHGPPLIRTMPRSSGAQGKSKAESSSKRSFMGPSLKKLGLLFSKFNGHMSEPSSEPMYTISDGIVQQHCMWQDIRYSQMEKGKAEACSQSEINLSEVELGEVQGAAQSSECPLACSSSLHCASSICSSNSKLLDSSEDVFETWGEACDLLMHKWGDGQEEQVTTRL
From the text: as §1, §2, §3, §4, §5, §6, §7, §8

T1 sequence (Q9UBN4 other isoform, or with tags, fused parts or gaps I575V): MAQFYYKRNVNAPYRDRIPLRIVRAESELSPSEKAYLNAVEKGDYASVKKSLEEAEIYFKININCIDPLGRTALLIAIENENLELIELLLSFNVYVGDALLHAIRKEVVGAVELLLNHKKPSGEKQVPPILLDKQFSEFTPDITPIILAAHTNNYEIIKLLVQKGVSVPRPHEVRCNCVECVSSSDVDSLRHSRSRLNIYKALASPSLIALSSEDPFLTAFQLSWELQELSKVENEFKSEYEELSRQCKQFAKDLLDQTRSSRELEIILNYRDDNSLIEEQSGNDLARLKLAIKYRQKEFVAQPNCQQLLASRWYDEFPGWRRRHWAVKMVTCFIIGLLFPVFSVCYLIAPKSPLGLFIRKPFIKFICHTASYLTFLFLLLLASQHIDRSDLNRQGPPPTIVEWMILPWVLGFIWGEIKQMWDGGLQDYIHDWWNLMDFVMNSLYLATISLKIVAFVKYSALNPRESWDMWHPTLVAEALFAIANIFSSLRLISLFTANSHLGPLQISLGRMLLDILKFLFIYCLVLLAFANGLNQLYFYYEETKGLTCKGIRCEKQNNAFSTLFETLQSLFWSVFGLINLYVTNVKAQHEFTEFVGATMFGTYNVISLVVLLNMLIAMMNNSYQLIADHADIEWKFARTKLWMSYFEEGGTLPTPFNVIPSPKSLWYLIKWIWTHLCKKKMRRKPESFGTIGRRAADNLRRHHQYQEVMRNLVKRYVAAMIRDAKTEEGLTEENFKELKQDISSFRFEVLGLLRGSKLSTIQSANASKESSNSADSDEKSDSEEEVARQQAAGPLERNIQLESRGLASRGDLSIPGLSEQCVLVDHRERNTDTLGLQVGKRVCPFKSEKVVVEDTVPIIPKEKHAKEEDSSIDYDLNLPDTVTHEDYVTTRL

Compound	Effect on [Ca2+]i, TRPC4I575V (TRPC4β-I575V-SYFP2)	Effect on [Ca2+]i, TRPC5V579I (TRPC5-V579I-SYFP2)
Cn1c(=O)n(CCCO)c(=O)c2c1nc(Oc1ccc(Cl)c(OC(F)(F)F)c1)n2Cc1ccc(Cl)cc1 [AM237, reference compound]	do not activate	partial agonists
Cn1c(=O)n(CCCO)c(=O)c2c1nc(Oc1ccc(/N=N\c3ccccc3)c(Cl)c1)n2Cc1ccc(Cl)cc1 [Z*-AzHC]	do not activate	partial agonists
